Results from patent publication US11259516B2, “Method and apparatus for capsular delivery to plants” (priority 2017, dated 2022).

How the values were obtained:
[1] = test system: Psidium cattleianum (Cherry guava); parameters: key: X indicates that the given herbicide is suitable for controlling the given weed; conditions: cited from earlier work
[2] = test system: western white gum (Eucalyptus argophloia); assay: Example 2: glyphosate and hexazinone capsules, thinning trial in western white gum plantation; conditions: Eucalyptus argophloia
Experimental: The trial for this example was established at the HQP plantation near Jandowae on 6 Feb. 2018. The trees were planted in rows 4 m apart at 1.5 m spacing. Trees were 6-10 m tall. Trees to be maintained were marked and the other trees were treated.
Four treatments were used, with capsules as follows:
The capsules used were HPMC Size 0 Natural TR.V700 colour cap and body Vcaps (Suzhou Capsugel® Ltd, China). Capsules were hand packed using a Capsugel Profiller apparatus (https://www.capsugel.com/biopharmaceutical-products/profiller). An embodiment of apparatus 10 adapted to include handle 2201 (FIG. 17) was used to drill a hole into the stem, insert the herbicide capsule and seal with a wooden plug.
Herbicide capsules were applied to approximately 10 trees for each of the treatments. The number of capsules applied to each tree was independent of tree circumference which was measured at chest height. The tree circumferences range was from 20 to 34 centimetres. At 4 weeks, a small sample of trees were cut down with a chainsaw and cross-sections of stems containing the sites of insertion of the herbicide capsules removed. These stem pieces were returned to the laboratory and split open longitudinally through the insertion point. Tree health was assessed at 11 weeks (24 Apr. 2018) on a 0-4 scale with 0 being dead and 4 being healthy. Observations were made for evidence of flashback in untreated trees.

[3] = test system: Senna pendula (Winter senna); parameters: key: X indicates that the given herbicide is suitable for controlling the given weed; conditions: cited from earlier work
[4] = test system: Crataegus sinaica (Azarola); parameters: key: X indicates that the given herbicide is suitable for controlling the given weed; conditions: cited from earlier work
[5] = test system: Gleditsia triacanthos (Honey locust); parameters: key: X indicates that the given herbicide is suitable for controlling the given weed; conditions: cited from earlier work
[6] = test system: Erythrina crista-galli (Cockspur coral tree); parameters: key: X indicates that the given herbicide is suitable for controlling the given weed; conditions: cited from earlier work
[7] = test system: Senegalia catechu (Cutch tree); parameters: key: X indicates that the given herbicide is suitable for controlling the given weed; conditions: cited from earlier work
[8] = test system: Ligustrum sinense (Chinese privet); parameters: key: X indicates that the given herbicide is suitable for controlling the given weed; conditions: cited from earlier work
Mimosa pigra (Mimosa) = test system: Mimosa pigra (Mimosa); parameters: key: X indicates that the given herbicide is suitable for controlling the given weed; conditions: cited from earlier work
[9] = test system: Olea europea sbsp africana (African olive); parameters: key: X indicates that the given herbicide is suitable for controlling the given weed; conditions: cited from earlier work
[10] = test system: Harungana madagarcariensis (Harungana); parameters: key: X indicates that the given herbicide is suitable for controlling the given weed; conditions: cited from earlier work
[11] = test system: Schinus terebinthifolius (Broad-leafed pepper tree); parameters: key: X indicates that the given herbicide is suitable for controlling the given weed; conditions: cited from earlier work
[12] = test system: Cinnamonum camphora (Camphor laurel); parameters: key: X indicates that the given herbicide is suitable for controlling the given weed; conditions: cited from earlier work
[13] = test system: Rubus anglocandicans (Blackberry); parameters: key: X indicates that the given herbicide is suitable for controlling the given weed; conditions: cited from earlier work
[14] = test system: Inga edulis (Icecream tree); parameters: key: X indicates that the given herbicide is suitable for controlling the given weed; conditions: cited from earlier work
[15] = test system: Toxicodendron succedaneum (Rhus); parameters: key: X indicates that the given herbicide is suitable for controlling the given weed; conditions: cited from earlier work
[16] = test system: Celtis sinensis (Chinese celtis); parameters: key: X indicates that the given herbicide is suitable for controlling the given weed; conditions: cited from earlier work

SMILES: O=C(O)CNCP(=O)(O)O [Glyphosate]
- suitability of herbicide for control of weed [1]: X
- flashback in the trees marked for retention ([2]; 11 week assessment): no flashback was observed
- trees died / killed (health rating 0-4 scale, 0 dead) ([2]; 11 weeks post treatment, 1 or 2 capsules per tree): majority of trees
- suitability of herbicide for control of weed [3]: X
- suitability of herbicide for control of weed [4]: X
- suitability of herbicide for control of weed [5]: X
- suitability of herbicide for control of weed [6]: X
- suitability of herbicide for control of weed [7]: X
- suitability of herbicide for control of weed [8]: X
- suitability of herbicide for control of weed (Mimosa pigra (Mimosa)): X
- suitability of herbicide for control of weed [9]: X
- suitability of herbicide for control of weed [10]: X
- suitability of herbicide for control of weed [11]: X
- suitability of herbicide for control of weed [12]: X
- suitability of herbicide for control of weed [13]: X
- suitability of herbicide for control of weed [14]: X
- suitability of herbicide for control of weed [15]: X
- suitability of herbicide for control of weed [16]: X
